# pKi: −log10 of the molar value. Like-named read-outs stand apart in the source and are kept apart here.
# How the values were obtained:
# ACE-2 [1] = target: ACE-2 (Rattus norvegicus, UniProt Q5EGZ1); assay: ACE-2 Competitive Substrate Assay, rat ACE-2; type: biochemical; conditions: Ki class; compounds tested in 5% DMSO, 12 compound concentrations
# Method: (§1) ACE-2 enzymatic activity was assayed in microtitre plates by the following procedure. The ACE-2 assay buffer used contained 50 mM MES (Boehringer-Mannheim), 300 mM NaCl (Sigma) and 0.01% Brij-35 (Pierce Chemical Co.) at pH 6.5.
# (§2) Reactions were mixed and incubated at 25° C.
# (§3) The activity of the test compounds was investigated using the procedure outlined above. The compounds were tested in 5% DMSO. Enzyme activity was measured at 12 compound concentrations.
# ACE-2 [2] = target: T1, ACE-2 (Homo sapiens, UniProt Q9BYF1); assay: ACE-2 Competitive Substrate Assay (ACS Assay); type: biochemical
# T1 construct: a stop codon inserted after the serine immediately preceding the transmembrane domain; made in house; host or cells: CHO K1 cells (transient transfection, purified from conditioned medium)
# T1 sequence (Q9BYF1 18-740 limits assumed): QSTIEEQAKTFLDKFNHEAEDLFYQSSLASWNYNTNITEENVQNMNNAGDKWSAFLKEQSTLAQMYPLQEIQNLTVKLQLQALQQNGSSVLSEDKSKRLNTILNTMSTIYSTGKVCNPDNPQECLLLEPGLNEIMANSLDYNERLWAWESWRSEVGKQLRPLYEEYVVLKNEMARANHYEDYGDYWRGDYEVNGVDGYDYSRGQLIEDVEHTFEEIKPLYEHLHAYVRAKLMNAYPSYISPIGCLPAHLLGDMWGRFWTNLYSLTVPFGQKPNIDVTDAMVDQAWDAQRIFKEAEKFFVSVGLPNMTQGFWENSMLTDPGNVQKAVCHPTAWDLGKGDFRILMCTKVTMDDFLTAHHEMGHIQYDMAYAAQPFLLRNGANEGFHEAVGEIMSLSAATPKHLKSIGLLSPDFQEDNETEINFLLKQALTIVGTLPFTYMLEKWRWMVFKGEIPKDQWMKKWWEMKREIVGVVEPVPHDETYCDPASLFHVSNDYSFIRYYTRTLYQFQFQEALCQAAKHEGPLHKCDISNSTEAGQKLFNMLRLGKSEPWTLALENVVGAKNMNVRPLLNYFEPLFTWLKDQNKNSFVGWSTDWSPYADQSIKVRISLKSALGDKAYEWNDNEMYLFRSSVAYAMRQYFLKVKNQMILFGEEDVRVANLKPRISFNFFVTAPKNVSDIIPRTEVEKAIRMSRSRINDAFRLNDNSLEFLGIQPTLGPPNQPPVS
# Method: An example of such an assay is the ACE-2 Competitive Substrate Assay (ACS Assay).
# as §1, §2, §3
# The following reagents, equipment, stock solutions, and working solutions are used for the ACE-2 assay.
# The assay buffer is prepared using 50 mM Mes, 300 mM NaCl, and 0.01% Brij 35, pH 6.5. These components are measured and made up to approximately 800 ml with nanopure water. Using 1M NaOH the pH is adjusted to 6.5 and the solution is then made up to the final volume of 1 L using nanopure water. The buffer is filtered through a 0.45 um disposable filter unit and stored at +4° C. until needed.
# This working solution maintains activity for up to 8 hours at room temperature.
# The working ACE-2 solution (for using with Mca-APK(Dnp)) is prepared by thawing ACE-2 and diluting it to a concentration of 1 nM using the assay buffer at room temperature.
# These solutions are stable up to 8 hours but can not be frozen-thawed for reuse.
# Multiple well plates are used for this experiment.
# Approximately 360 compounds are tested per plate. Five μl per of each test compound is added in each well. […] Immediately thereafter, 20 μl of Mca-XXX(Dnp) working solution is added per well and mixed for 30 seconds. The reaction is allowed to progress for approximately 60 minutes.
# After approximately 60 minutes, 20 μl of 50 mM EDTA is added per well (reaction is linear up to 90 minutes) and mixed for 30 seconds. At this point the fluorescent signal is stable up to 20 hours at room temperature.
# ACE (Sigma, A2580) = target: T2, ACE (Sigma, A2580) (Sus scrofa, UniProt F1RRW5); assay: ACE enzymatic activity assay; type: biochemical, porcine; conditions: Ki class; compounds tested in 5% DMSO, 12 concentrations
# T2 construct: ACE from porcine kidney; purchased Sigma A2580; host or cells: porcine kidney
# T2 sequence (F1RRW5 34-1309): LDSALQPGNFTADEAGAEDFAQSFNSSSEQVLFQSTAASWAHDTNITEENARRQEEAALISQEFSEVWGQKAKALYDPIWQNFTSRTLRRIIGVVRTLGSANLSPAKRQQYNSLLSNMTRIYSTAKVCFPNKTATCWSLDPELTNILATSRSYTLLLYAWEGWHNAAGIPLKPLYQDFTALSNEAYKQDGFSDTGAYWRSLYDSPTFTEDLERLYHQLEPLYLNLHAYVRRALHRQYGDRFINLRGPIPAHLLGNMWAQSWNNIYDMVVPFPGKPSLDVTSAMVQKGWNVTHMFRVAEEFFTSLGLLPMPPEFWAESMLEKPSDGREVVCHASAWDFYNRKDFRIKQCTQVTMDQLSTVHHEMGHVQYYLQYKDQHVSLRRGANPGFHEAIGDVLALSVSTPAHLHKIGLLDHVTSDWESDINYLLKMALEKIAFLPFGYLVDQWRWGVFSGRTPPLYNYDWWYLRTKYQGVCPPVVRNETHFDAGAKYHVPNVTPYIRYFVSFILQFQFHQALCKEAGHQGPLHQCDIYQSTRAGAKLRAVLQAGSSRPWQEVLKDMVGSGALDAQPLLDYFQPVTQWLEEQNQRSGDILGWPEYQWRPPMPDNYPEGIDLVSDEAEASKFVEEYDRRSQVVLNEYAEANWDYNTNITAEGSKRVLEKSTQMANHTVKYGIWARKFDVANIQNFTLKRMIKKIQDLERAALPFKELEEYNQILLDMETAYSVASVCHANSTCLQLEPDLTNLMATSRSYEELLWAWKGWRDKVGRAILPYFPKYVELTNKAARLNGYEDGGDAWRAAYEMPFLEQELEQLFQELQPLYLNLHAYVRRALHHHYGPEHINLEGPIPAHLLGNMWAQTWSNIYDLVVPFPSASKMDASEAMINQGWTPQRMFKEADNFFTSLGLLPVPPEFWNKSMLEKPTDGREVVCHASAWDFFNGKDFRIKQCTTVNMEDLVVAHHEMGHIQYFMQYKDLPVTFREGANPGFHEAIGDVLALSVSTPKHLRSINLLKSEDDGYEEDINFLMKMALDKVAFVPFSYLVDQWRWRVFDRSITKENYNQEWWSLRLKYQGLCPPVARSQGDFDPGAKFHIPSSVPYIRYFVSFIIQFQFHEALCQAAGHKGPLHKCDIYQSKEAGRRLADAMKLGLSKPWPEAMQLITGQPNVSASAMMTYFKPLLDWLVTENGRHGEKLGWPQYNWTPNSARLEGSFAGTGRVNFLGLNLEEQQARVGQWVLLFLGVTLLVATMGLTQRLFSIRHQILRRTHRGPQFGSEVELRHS
# In short: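 Fluorogenic substrate cleavage by 1 nM ACE, read at 320/405 nm after EDTA stop at ~30 min. Reactions at 25 °C, pH 7.5, in HEPES/NaCl/Brij-35 buffer; compounds tested at 12 concentrations in 5% DMSO.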
# Carboxypeptidase A = target: T3, Carboxypeptidase A (Bos taurus, UniProt P00730); assay: Carboxypeptidase A activity assay; type: biochemical; conditions: Ki class; compounds tested in 5% DMSO, 12 concentrations
# T3 sequence (P00730 111-419): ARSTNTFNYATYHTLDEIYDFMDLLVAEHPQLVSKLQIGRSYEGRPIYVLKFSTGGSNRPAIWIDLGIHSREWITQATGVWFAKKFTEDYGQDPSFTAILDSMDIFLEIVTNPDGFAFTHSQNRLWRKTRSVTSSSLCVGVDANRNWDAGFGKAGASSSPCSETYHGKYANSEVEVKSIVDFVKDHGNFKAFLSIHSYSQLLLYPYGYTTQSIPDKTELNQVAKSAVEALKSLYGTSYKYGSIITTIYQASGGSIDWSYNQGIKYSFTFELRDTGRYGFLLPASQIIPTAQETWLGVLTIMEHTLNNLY
# In short: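 Ki obtained by correcting apparent Ki for substrate, Ki=Kiapp/(1+[S]/Km), from 12-concentration series. Enzyme activity read by absorbance at 328 nm with 5% DMSO present, EDTA stop.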
# [3] = Ki class, compounds tested in 5% DMSO, 12 compound concentrations, Ki=Kiapp/(1+[S]/Km), read-out: Human ACE-2 Activity
# [4] = Table 3, very good ACE-2 inhibiting compounds, species not given, read-out: ACE-2 Activity, Ki
# [5] = Ki class, compounds tested in 5% DMSO, 12 concentrations, read-out: Human ACE-2 Activity
# ACE-2 (Rattus norvegicus, UniProt Q5EGZ1), sequence (Q5EGZ1 18-805): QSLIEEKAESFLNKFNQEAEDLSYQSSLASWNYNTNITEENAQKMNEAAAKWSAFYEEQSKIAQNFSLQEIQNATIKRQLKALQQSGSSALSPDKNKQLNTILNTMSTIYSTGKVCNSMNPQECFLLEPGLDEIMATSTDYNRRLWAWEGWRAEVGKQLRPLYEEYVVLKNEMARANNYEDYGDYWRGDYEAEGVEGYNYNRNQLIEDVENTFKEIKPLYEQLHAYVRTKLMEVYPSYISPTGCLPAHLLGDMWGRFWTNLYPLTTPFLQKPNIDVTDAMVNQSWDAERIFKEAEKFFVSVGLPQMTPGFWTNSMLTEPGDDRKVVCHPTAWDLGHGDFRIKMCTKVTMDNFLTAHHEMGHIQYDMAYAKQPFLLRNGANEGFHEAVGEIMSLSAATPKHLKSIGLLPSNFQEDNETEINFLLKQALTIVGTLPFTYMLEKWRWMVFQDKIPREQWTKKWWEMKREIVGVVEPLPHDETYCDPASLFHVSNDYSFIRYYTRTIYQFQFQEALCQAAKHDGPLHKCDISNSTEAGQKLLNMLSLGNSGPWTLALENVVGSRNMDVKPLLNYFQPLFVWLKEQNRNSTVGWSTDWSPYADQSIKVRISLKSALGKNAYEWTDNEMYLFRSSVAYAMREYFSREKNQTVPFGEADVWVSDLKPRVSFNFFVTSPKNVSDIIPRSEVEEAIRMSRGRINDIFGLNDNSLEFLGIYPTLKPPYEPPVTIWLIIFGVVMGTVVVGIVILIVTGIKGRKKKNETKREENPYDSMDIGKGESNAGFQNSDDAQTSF
SMILES,pKi (ACE-2 [1]),pKi (ACE-2 [2]; [3]),pKi (ACE-2 [2]; [4]),"pKi (ACE (Sigma, A2580))",pKi (Carboxypeptidase A),pKi (ACE-2 [2]; [5])
"CC(C)CC(N[C@@H](Cc1cncn1Cc1ccc(F)cc1)C(=O)O)C(=O)O (single isomer, unassigned) [II, 2-[1-Carboxy-2-[3-(4-fluoro-benzyl)-3H-imidazol-4-yl]-ethylamino]4-methyl-pentanoic acid]",> 7.00,> 7.00,7.00 to 7.30,–,–,–
"CC(C)CC(N[C@@H](Cc1cncn1Cc1cccc(Cl)c1Cl)C(=O)O)C(=O)O (single isomer, unassigned) [IX, 2-[1-Carboxy-2-[3-(2,3-dichloro-benzyl)-3H-imidazol-4-yl]-ethylamino]4-methyl-pentanoic acid]",> 7.00,< 6.30,> 7.30,–,–,–
"CC(C)CC(N[C@@H](Cc1cncn1Cc1cccc(C(F)(F)F)c1)C(=O)O)C(=O)O (single isomer, unassigned) [IZ, 2-[1-Carboxy-2-[3-(3-trifluoromethyl-benzyl)-3H-imidazol-4-yl]-ethylamino]4-methyl-pentanoic acid]",> 7.00,> 7.00,> 7.30,–,–,–
"CC(C)CC(N[C@@H](Cc1cncn1Cc1cc(Cl)ccc1Cl)C(=O)O)C(=O)O (single isomer, unassigned) [JB, 2-[1-Carboxy-2-[3-(2,5-dichloro-benzyl)-3H-imidazol-4-yl]-ethylamino]4-methyl-pentanoic acid]",> 7.00,> 7.00,> 7.30,–,–,–
"CC(C)CC(N[C@@H](Cc1cncn1Cc1ccc2c(c1)OCO2)C(=O)O)C(=O)O (single isomer, unassigned) [JE]",> 7.00,> 7.00,> 7.30,–,–,–
"CC(C)CC(N[C@@H](Cc1cncn1CCC1CCCCC1)C(=O)O)C(=O)O (single isomer, unassigned) [JI, 2-[1-Carboxy-2-[3-(2-cyclohexyl-ethyl)-3H-imidazol-4-yl]-ethylamino]4-methyl-pentanoic acid]",> 7.00,> 7.00,> 7.30,–,–,–
"CC(C)CC(N[C@@H](Cc1cncn1CCc1ccccc1)C(=O)O)C(=O)O (single isomer, unassigned) [JK, 2-[1-Carboxy-2-[3-phenethyl-3H-imidazol-4-yl)-ethylamino]-4-methyl-pentanoic acid]",> 7.00,> 7.00,–,–,–,–
"CC(C)CC(N[C@@H](Cc1cncn1Cc1cccc(I)c1)C(=O)O)C(=O)O (single isomer, unassigned) [JO, 2-[1-Carboxy-2-[3-(3-iodobenzyl)-3H-imidazol-4-yl]-ethylamino]-4-methyl-pentanoic acid]",> 7.00,> 7.00,> 7.30,–,–,–
"CC(C)CC(N[C@@H](Cc1cncn1Cc1cccc(F)c1)C(=O)O)C(=O)O (single isomer, unassigned) [JQ, 2-[1-Carboxy-2-[3-(3-fluoro-benzyl)-3H-imidazol-4-yl]-ethylamino]4-methyl-pentanoic acid]",> 7.00,> 7.00,> 7.30,–,–,–
"CC(C)C[C@H](NC(=O)NCCc1ccccc1)C(=O)O [DV, 4-Methyl-2-(3-phenethyl-ureido)-pentanoic acid]",–,–,–,< 4.30,> 5.00,< 6.30
"CC(C)C[C@H](NCC(=O)c1ccccc1)C(=O)O [DW, 4-Methyl-2-(2-oxo-2-phenyl-ethylamino)-pentanoic acid]",–,–,–,< 4.30,> 5.00,< 6.30
"CC(C)CCN[C@@H](Cc1c[nH]cn1)C(=O)O [DY, 3-(1H-Imidazol-4-yl)-2-(3-methyl-butylamino)-propionic acid]",–,–,–,< 4.30,< 4.30,< 6.30
"CC(C)CC(NCCc1c[nH]cn1)C(=O)O (centres unmarked) [DZ, 2-[2-(1H-imidazol-4-yl)-ethylamino]-4-methyl-pentanoic acid]",–,–,–,< 4.30,< 4.30,< 6.30
"CC(C)CC(N[C@H](CC(=O)O)Cc1cccs1)C(=O)O (some centres unmarked) [EI, 2-(1-Carboxymethyl-2-thiophen-2-yl-ethylamino)-4-methyl-pentanoic acid]",–,–,–,< 4.30,< 4.30,< 6.30
"O=C(O)C(Cc1ccccc1)N[C@@H](Cc1cnc[nH]1)C(=O)O (some centres unmarked) [EK, 2-(1-Carboxy-2-phenyl-ethylamino)-3-(3H-imidazol-4-yl)-propionicacid]",–,–,–,4.30 to 5.00,4.30 to 5.00,< 6.30
"COc1ccc(C#CC[C@H](N[C@@H](CCc2ccccc2)C(=O)O)C(=O)O)cc1 [FR, 2-(1-Carboxy-3-phenyl-propylamino)-5-(4-methoxy-phenyl)-pent-4-ynoic acid]",–,–,–,< 4.30,< 4.30,< 6.30
"CC(C)CC(N[C@@H](Cc1csc(-c2ccccc2)n1)C(=O)O)C(=O)O (some centres unmarked) [IL, 2-[1-Carboxy-2-(2-phenyl-thiazol-4-yl)-ethylamino]-4-methyl-pentanoic acid]",> 7.00,6.30 to 7.00,7.00 to 7.30,–,–,–
"CC(N[C@@H](Cc1c[nH]cn1)C(=O)O)C(=O)O (some centres unmarked) [N, 2-(1-Carboxy-ethylamino)-3-(1H-imidazol-4-yl)-propionic acid]",–,–,–,< 4.30,< 4.30,< 6.30
"C[C@H](N[C@@H](CCc1ccccc1)C(=O)O)C(=O)O [P, 2-(1-Carboxy-ethylamino)-4-phenyl-butync acid]",–,–,–,< 4.30,< 4.30,< 6.30
"CCCCC(N[C@@H](CC(C)C)C(=O)O)C(=O)O (some centres unmarked) [Q, 2-(1-Carboxy-3-methyl-butylamino)-hexanoic acid]",–,–,–,< 4.30,< 4.30,< 6.30
"CC(C)C[C@H](N[C@H](Cc1ccccc1)C(=O)O)C(=O)O [T, 2-(1-Carboxy-2-phenyl-ethylamino)-4-methyl-pentanoic acid]",–,–,–,< 4.30,4.30 to 5.00,< 6.30
"CC(C)C[C@@H](C(=O)O)N(C)C(CCc1ccccc1)C(=O)O (some centres unmarked) [V, 2-[(1-Carboxy-3-phenyl-propyl)-methyl-amino]-4-methyl-pentanoic acid]",–,–,–,< 4.30,< 4.30,< 6.30
"CCC(NC(Cc1c[nH]c2ccccc12)C(=O)O)C(=O)O (centres unmarked) [W, 2-[1-Carboxy-2-(1H-indol-3-yl)-ethylamino]-butync acid]",–,–,–,< 4.30,< 4.30,< 6.30
"CCCC(N[C@H](Cc1c[nH]c2ccccc12)C(=O)O)C(=O)O (some centres unmarked) [X, 2-[1-Carboxy-2-(1H-indol-3-yl)-ethylamino]-pentanoic acid]",–,–,–,< 4.30,< 4.30,< 6.30
"CSCC[C@H](NC(CCc1ccccc1)C(=O)O)C(=O)O (some centres unmarked) [Y, 2-(1-Carboxy-3-methylsulfanyl-propylamino)-4-phenyl-butync acid]",–,–,–,< 4.30,< 4.30,< 6.30
"CCC(N[C@@H](CCSC)C(=O)O)C(=O)O (some centres unmarked) [Z, 2-(1-Carboxy-propylamino)-4-methylsulfanyl-butyncacid]",–,–,–,< 4.30,< 4.30,< 6.30

# Source: patent publication US7045532B2 (Millennium Pharmaceuticals, Inc., priority 1999, dated 2006)
